US20140073631A1 (priority 2012, published 2014)
≈ marks a conversion by molar mass, not a printed value. Like-named read-outs stand apart in the source and are kept apart here.

Columns and labels:
Yersinia pestis = assay: microbe, parasite or virus in culture; assay type: cell-based; details: Yersinia pestis
Bacillus anthracis = assay: microbe, parasite or virus in culture; assay type: cell-based; details: Bacillus anthracis
Francisella tularensis = assay: microbe, parasite or virus in culture; assay type: cell-based; details: Francisella tularensis
Burkholderia mallei = assay: microbe, parasite or virus in culture; assay type: cell-based; details: Burkholderia mallei
H37Rv Colorado strain [1] = assay: TB MIC Testing (Table 9); assay type: cell-based; details: Mycobacterium tuberculosis, read-out: MIC Value, Standard Test Strain H27Rv
H37Rv Colorado strain [2] = assay: MBC Determination with H37Rv Colorado strain (Table 9); assay type: cell-based; details: Mycobacterium tuberculosis; Performed with H37Rv
TB = assay: DMID TB MIC Results (Table 10); assay type: cell-based; details: Mycobacterium tuberculosis; solvent DMSO
B. anthracis = assay: microbe, parasite or virus in culture; assay type: cell-based; details: Bacillus anthracis, read-out: MIC B. anthracis
B. mallei = assay: microbe, parasite or virus in culture; assay type: cell-based; details: Burkholderia mallei, read-out: MIC B. mallei
B. pseudomallei = assay: microbe, parasite or virus in culture; assay type: cell-based; details: Burkholderia pseudomallei, read-out: MIC B. pseudomallei
F. tularensis = assay: microbe, parasite or virus in culture; assay type: cell-based; details: Francisella tularensis, read-out: MIC F. tularensis (Original Test)
Y. pestis = assay: microbe, parasite or virus in culture; assay type: cell-based; details: Yersinia pestis, read-out: MIC Y. pestis
E. coli = assay: microbe, parasite or virus in culture; assay type: cell-based; details: Escherichia coli, read-out: MIC E. coli
P. aeruginosa = assay: microbe, parasite or virus in culture; assay type: cell-based; details: Pseudomonas aeruginosa, read-out: MIC P. aeruginosa
Plasmodium falciparum = assay: Anti-malaria testing; assay type: cell-based
Vero Cells = assay: Cytotoxicity Assay, CellTiter-Glo Luminescent Cell Viability Assay
HIV-1 = assay: CEM-SS microtiter antiviral XTT cytoprotection assay; assay type: cell-based
[3] = tested on: HIV-1 ROJO (low passage clinical strain); assay: PBMC assay, virus production by reverse transcriptase activity; assay type: cell-based
[4] = tested on: fresh human peripheral blood mononuclear cells
[5] = tested on: Flu A H1N1 New Caledonia/20/99; assay: Anti-influenza testing, visual and NR assays; assay type: cell-based, influenza A H1N1; details: Influenza A virus, H1N1, MDCK
MDCK = assay: Anti-influenza testing, IC50 in MDCK cell line (cell-inhibitory concentration used for SI); assay type: cell-based; details: Canis lupus familiaris, Neutral Red assay, test with Flu A (H1N1) New Caledonia/20/99, trial 1
[6] = average of Test 1 and Test 2, read-out: Average IC50

In the case of CC1COc2c(N3CCN(C(=N)NC#N)CC3)c(F)cc3c(=O)c(C(=O)O)cn1c23 (stereo not drawn) [BVS-60C (XVII)], the MIC90 (Yersinia pestis) is reported as < 4 µg/mL, the MIC90 (Bacillus anthracis) is reported as ≤ 0.25 µg/mL and the MIC90 (Francisella tularensis) is reported as < 4 µg/mL. The MIC90 (Burkholderia mallei) was < 4 µg/mL, the MIC (H37Rv Colorado strain [1]) was 0.312 µg/mL (≈ 0.753 µM) and the MBC (H37Rv Colorado strain [2]) was 0.625 µg/mL (≈ 1.51 µM). It also gave an IC50 (TB) of 0.22 µg/mL (≈ 0.531 µM), an IC90 (TB) of 0.23 µg/mL (≈ 0.555 µM) and an MIC (TB) of 0.312 µg/mL (≈ 0.753 µM). The MIC (B. anthracis) was < 0.06 µg/mL, the MIC (B. mallei) was 1 µg/mL (≈ 2.41 µM) and the MIC (B. pseudomallei) was 1 to 2 µg/mL (≈ 2.41 to 4.83 µM). The MIC (F. tularensis) was < 0.06 µg/mL, the MIC (Y. pestis) was 0.06 µg/mL (≈ 0.145 µM) and the MIC (E. coli) was 0.06 to 0.12 µg/mL (≈ 0.145 to 0.29 µM). For the same molecule, the MIC (P. aeruginosa) was 2 µg/mL (≈ 4.83 µM), the IC50 (Plasmodium falciparum; [6]) was 6.11 µM and the IC50 (Plasmodium falciparum; read-out: IC50 Test 1) was 6.11 µM. For the same molecule, the “% Viability” value (Vero Cells; 0.01 μg/ml) was 93%, the “% Viability” value (Vero Cells; 0.02 μg/ml) was 95% and the “% Viability” value (Vero Cells; 5 μg/ml) was 92%. The “% Viability” value (Vero Cells; 10 μg/ml) was 88% and the “% Viability” value (Vero Cells; 20 μg/ml, vs […] DMSO controls) was 96%.

For Nc1ccn([C@H]2CC[C@@H](CO)O2)c(=O)n1 [DDC, di-deoxycytosine, reference compound], the “% RED. IN VIRAL CPE” value (HIV-1; 0.00003 μM) was 1%, the “% RED. IN VIRAL CPE” value (HIV-1; 0.0001 μM) was 5% and the “% RED. IN VIRAL CPE” value (HIV-1; 0.00032 μM) was 6%. For the same molecule, the “% RED. IN VIRAL CPE” value (HIV-1; 0.001 μM) was 4%, the “% RED. IN VIRAL CPE” value (HIV-1; 0.0032 μM) was 8% and the “% RED. IN VIRAL CPE” value (HIV-1; 0.01 μM) was 9%. The “% RED. IN VIRAL CPE” value (HIV-1; 0.032 μM) was 75%, the “% RED. IN VIRAL CPE” value (HIV-1; 0.1 μM) was 81% and the “% RED. IN VIRAL CPE” value (HIV-1; 0.32 μM) was 92%. The “% RED. IN VIRAL CPE” value (HIV-1; 1 μM) was 86%, the “% RED. IN VIRAL CPE” value (HIV-1; 3.2 μM) was 100% and the “% RED. IN VIRAL CPE” value (HIV-1; 10 μM) was 100%. For the same molecule, the “% CELL VIABILITY” value (CEM-SS cells; 0.00003 μM) was 100%, the “% CELL VIABILITY” value (CEM-SS cells; 0.0001 μM) was 93% and the “% CELL VIABILITY” value (CEM-SS cells; 0.00032 μM) was 99%. The “% CELL VIABILITY” value (CEM-SS cells; 0.001 μM) was 100%, the “% CELL VIABILITY” value (CEM-SS cells; 0.0032 μM) was 100% and the “% CELL VIABILITY” value (CEM-SS cells; 0.01 μM) was 100%. For the same molecule, the “% CELL VIABILITY” value (CEM-SS cells; 0.032 μM) was 100%, the “% CELL VIABILITY” value (CEM-SS cells; 0.1 μM) was 96% and the “% CELL VIABILITY” value (CEM-SS cells; 0.32 μM) was 97%. The “% CELL VIABILITY” value (CEM-SS cells; 1 μM) was 100%, the “% CELL VIABILITY” value (CEM-SS cells; 3.2 μM) was 100% and the “% CELL VIABILITY” value (CEM-SS cells; 10 μM) was 100%.

Cc1cn([C@H]2C[C@H](N=[N+]=[N-])[C@@H](CO)O2)c(=O)[nH]c1=O [AZT, reference compound] was tested, and the “RT ACTIVITY % VC” value ([3]; 0.0013 μM) was 104.6%, the “RT ACTIVITY % VC” value ([3]; 0.013 μM) was 77.3% and the “RT ACTIVITY % VC” value ([3]; 0.04 μM) was 81.7%. For the same molecule, the “RT ACTIVITY % VC” value ([3]; 0.13 μM) was 32.3%, the “RT ACTIVITY % VC” value ([3]; 0.4 μM) was 3.8% and the “RT ACTIVITY % VC” value ([3]; 1.3 μM) was 8.8%. The “RT ACTIVITY % VC” value ([3]; 4 μM) was 0.7%, the IC50 ([3]; ROJO in PBMC, RT activity) was 0.1 µM and the CC50 [4] was > 4 µM. For the same molecule, the “TOXICITY VALUES (XTT) % CC” value ([4]; 0.0013 μM) was 90.1%, the “TOXICITY VALUES (XTT) % CC” value ([4]; 0.013 μM) was 99.3% and the “TOXICITY VALUES (XTT) % CC” value ([4]; 0.04 μM) was 92.1%. The “TOXICITY VALUES (XTT) % CC” value ([4]; 0.13 μM) was 89.0%, the “TOXICITY VALUES (XTT) % CC” value ([4]; 0.4 μM) was 98.8% and the “TOXICITY VALUES (XTT) % CC” value ([4]; 1.3 μM) was 84.8%. For the same molecule, the “TOXICITY VALUES (XTT) % CC” value ([4]; 4 μM) was 86.2%.

For N=C(NC(=N)N1CCSCC1)NC1C2CC3CCC1(NC(=N)NC(=N)N1CCSCC1)CC3C2 (stereo not drawn) [BVS-20A (XII)], the MIC90 (Bacillus anthracis; read-out: MIC90) was ≤ 4 µg/mL and the MIC90 (Francisella tularensis) was < 4 µg/mL.

For C[C@@H]1COc2c(N3CCN(C(=N)NC(=N)NCCCCCCNC(=N)NC(=N)N4CCN(c5c(F)cc6c(=O)c(C(=O)O)cn7c6c5OC[C@@H]7C)CC4)CC3)c(F)cc3c(=O)c(C(=O)O)cn1c23 [BVS-85A (XVII)], the MIC (H37Rv Colorado strain [1]) was 1.25 µg/mL (≈ 1.32 µM), the MBC (H37Rv Colorado strain [2]) was 1.25 µg/mL (≈ 1.32 µM) and the IC50 (TB) was 0.53 µg/mL (≈ 0.561 µM). The IC90 (TB) was 0.57 µg/mL (≈ 0.603 µM), the MIC (TB) was 0.625 µg/mL (≈ 0.661 µM) and the MIC (B. anthracis) was < 0.06 µg/mL. For the same molecule, the MIC (B. mallei) was 0.5 µg/mL (≈ 0.529 µM), the MIC (B. pseudomallei) was 8 µg/mL (≈ 8.47 µM) and the MIC (F. tularensis) was < 0.06 µg/mL. For the same molecule, the MIC (Y. pestis) was 0.06 to 0.12 µg/mL (≈ 0.0635 to 0.127 µM), the MIC (E. coli) was < 0.06 µg/mL and the MIC (P. aeruginosa) was 0.5 µg/mL (≈ 0.529 µM). The IC50 (Plasmodium falciparum; [6]) was 7.26 µM, the IC50 (Plasmodium falciparum; read-out: IC50 Test 1) was 5.45 µM and the IC50 (Plasmodium falciparum; read-out: IC50 Test 2) was 9.06 µM. The “% Viability” value (Vero Cells; 0.01 μg/ml) was 109%, the “% Viability” value (Vero Cells; 0.02 μg/ml) was 109% and the “% Viability” value (Vero Cells; 5 μg/ml) was 106%. For the same molecule, the “% Viability” value (Vero Cells; 10 μg/ml) was 101% and the “% Viability” value (Vero Cells; 20 μg/ml, vs […] DMSO controls) was 107%.

For O=C(O)C1=C(c2ccc(F)c(N3CCNCC3)c2)N(C23CC4CCC(C2)C(C4)C3)C(=O)CC1 (stereo not drawn) [BVS-97E (XIV)], the MIC (B. anthracis) was 4 µg/mL (≈ 8.82 µM), the MIC (B. mallei) was > 64 µg/mL and the MIC (B. pseudomallei) was > 64 µg/mL. For the same molecule, the MIC (F. tularensis) was 0.5 to 4 µg/mL (≈ 1.1 to 8.82 µM), the MIC (Y. pestis) was > 64 µg/mL and the MIC (E. coli) was 16 to 32 µg/mL (≈ 35.3 to 70.6 µM). The MIC (P. aeruginosa) was > 64 µg/mL.

For N#CNC(=N)NC1C2CC3CCC1(NC(=N)NC#N)CC3C2 (stereo not drawn) [BVS-47], the EC50 [5] was 0.25 µg/mL (≈ 0.832 µM) and the IC50 (MDCK) was 70 µg/mL (≈ 233 µM).

In the case of O=C(O)c1cn(C2CC2)c2cc(N3CCNCC3)c(F)cc2c1=O [Ciprofloxacin, ciprofloxacin, reference compound], the MIC (B. anthracis) is reported as < 0.03 µg/mL, the MIC (B. mallei) is reported as 1 µg/mL (≈ 3.02 µM) and the MIC (B. pseudomallei) is reported as 0.5 to 1 µg/mL (≈ 1.51 to 3.02 µM). The MIC (E. coli) was 0.015 to 0.06 µg/mL (≈ 0.0453 to 0.181 µM) and the MIC (P. aeruginosa) was 0.25 µg/mL (≈ 0.754 µM).
